Laboratory results taken from patent US8785488B2 (Exelixis Patent Company LLC, priority 2009, dated 2014).
Where a name gives a salt, the structure may show the parent alone.

These compounds were tested against T1, human TGR5 (h-TGR5) (Homo sapiens, UniProt Q8TDU6) (assay: TGR5/CRE-Luciferiase Assay (HEK 293 hTGR5/CRE-Luc cells)). Conditions: HEK 293 hTGR5/CRE-Luc cells, 6 hours incubation, luciferase activity; Table 2; read-out: h-TGR5CRE-Luc EC50 (CRE-Luc).
T1 construct: expressed in transfected cells
T1 sequence (Q8TDU6 1-330): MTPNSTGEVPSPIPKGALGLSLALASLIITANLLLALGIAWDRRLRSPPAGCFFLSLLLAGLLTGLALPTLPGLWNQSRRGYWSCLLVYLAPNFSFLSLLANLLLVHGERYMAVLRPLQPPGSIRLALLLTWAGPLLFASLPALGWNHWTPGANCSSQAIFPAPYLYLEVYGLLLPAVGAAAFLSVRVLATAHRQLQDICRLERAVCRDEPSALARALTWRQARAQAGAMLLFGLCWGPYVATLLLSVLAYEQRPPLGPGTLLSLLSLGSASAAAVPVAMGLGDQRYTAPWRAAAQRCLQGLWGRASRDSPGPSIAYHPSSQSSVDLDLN
Assay type: cell-based
Summary of the method: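 HEK293 cells stably carrying hTGR5 and a CRE-luciferase reporter were exposed to serially diluted compounds (diluted in DMEM with 5% DMSO) for 6 h. Cells were then lysed in luciferase buffer, luminescence was read, and EC50 values were derived from dose-response curves.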

Structure (SMILES)	EC50 [nM]
Fc1ccc(-n2c(Cc3ccc(Cl)c(Cl)c3)nnc2SCc2cccc(Cl)c2F)cc1 [Example 2]	1000 to 10000
CC(C)(c1ccc(Cl)cc1)c1nnc(SCc2ccc(F)cc2Cl)n1-c1ccc(F)cc1 [Example 6]	1000 to 10000
Fc1ccc(-n2c(Cc3ccc(F)c(Cl)c3)nnc2SCc2c(F)cccc2Cl)cc1 [Example 15]	1000 to 10000
Fc1ccc(CSc2nnc(Cc3ccc(Cl)c(Cl)c3)n2-c2ccc(F)cc2)cc1 [Example 17]	1000 to 10000
COc1ccc(Cc2nnc(SCc3ccc(F)cc3Cl)n2-c2ccc(F)cc2)cc1 [Example 28, hydrochloride]	1000 to 10000
COc1ccc(Cc2nnc(SCc3cccc(C(F)(F)F)c3F)n2-c2ccc(F)cc2)cc1OC [Example 30]	< 100
Fc1ccc(-n2c(Cc3ccc(Cl)c(Cl)c3)nnc2SCc2ccc(F)cc2C(F)(F)F)cc1 [Example 33]	1000 to 10000
Fc1ccc(-n2c(Cc3ccc(Cl)c(F)c3)nnc2SCc2c(F)cccc2Cl)cc1 [Example 38]	100 to 1000
CS(=O)(=O)c1ccc(Cc2nnc(SCc3ccc(F)cc3Cl)n2-c2ccc(F)cc2)cc1 [Example 44]	1000 to 10000
CC(C)(c1ccc2nccnc2c1)c1nnc(SCc2ccc(Cl)c(-c3nnn[nH]3)c2)n1-c1ccc(F)cc1 [Example 46]	1000 to 10000
CC(C)(c1ccc2cccnc2c1)c1nnc(SCc2c(F)cc(C(=O)O)cc2F)n1-c1ccc(F)cc1 [Example 50]	1000 to 10000

Same assay, conditions: h-TGR5 CRE-Luc EC50, Table 1; read-out: CRE-Luc (EC50)

Structure (SMILES)	EC50 [nM]
COc1ccc(C(C)(C)c2cnc(SCc3ccc(F)c(Cl)c3)n2-c2ccc(F)cc2)cc1OC [5-{1-[3,4-bis(methyloxy)phenyl]-1-methylethyl}-2-{[(3-chloro-4-fluorophenyl)methyl]thio}-1-(4-fluorophenyl)-1H-imidazole]	< 100
COc1ccc(C(C)(C)c2cnc(C(=O)Nc3ccc(F)cc3Cl)n2-c2ccc(F)cc2)cc1OC [5-{1-[3,4-bis(methyloxy)phenyl]-1-methylethyl}-N-(2-chloro-4-fluorophenyl)-1-(4-fluorophenyl)-1H-imidazole-2-carboxamide]	1000 to 10000
COc1ccc(C(C)(C)c2cnc(C(=O)Nc3c(F)cccc3Cl)n2-c2ccc(F)cc2)cc1OC [5-{1-[3,4-bis(methyloxy)phenyl]-1-methylethyl}-N-(2-chloro-6-fluorophenyl)-1-(4-fluorophenyl)-1H-imidazole-2-carboxamide]	1000 to 10000
COc1ccc(C(C)(C)c2cnc(C(=O)N(C)c3c(F)cccc3Cl)n2-c2ccc(F)cc2)cc1OC [5-{1-[3,4-bis(methyloxy)phenyl]-1-methylethyl}-N-(2-chloro-6-fluorophenyl)-1-(4-fluorophenyl)-N-methyl-1H-imidazole-2-carboxamide]	1000 to 10000
COc1ccc(C(C)(C)c2cnc(C(=O)Nc3ccc(Cl)c(Cl)c3)n2-c2ccc(F)cc2)cc1OC [5-{1-[3,4-bis(methyloxy)phenyl]-1-methylethyl}-N-(3,4-dichlorophenyl)-1-(4-fluorophenyl)-1H-imidazole-2-carboxamide]	1000 to 10000
COc1ccc(C(C)(C)c2cnc(C(=O)Nc3ccc(F)c(Cl)c3)n2-c2ccc(F)cc2)cc1OC [5-{1-[3,4-bis(methyloxy)phenyl]-1-methylethyl}-N-(3-chloro-4-fluorophenyl)-1-(4-fluorophenyl)-1H-imidazole-2-carboxamide]	1000 to 10000
COc1ccc(C(C)(C)c2cnc(C(=O)NCc3ccc(Cl)c(F)c3)n2-c2ccc(F)cc2)cc1OC [5-{1-[3,4-bis(methyloxy)phenyl]-1-methylethyl}-N-[(4-chloro-3-fluorophenyl)methyl]-1-(4-fluorophenyl)-1H-imidazole-2-carboxamide]	100 to 1000
COc1ccc(C(C)(C)c2cnc(C(=O)NC3CCCCC3)n2-c2ccc(F)cc2)cc1OC [5-{1-[3,4-bis(methyloxy)phenyl]-1-methylethyl}-N-cyclohexyl-1-(4-fluorophenyl)-1H-imidazole-2-carboxamide]	1000 to 10000
CC(C)(c1ccc(Cl)c(Cl)c1)c1cnc(SCc2ccc(-c3nnn[nH]3)c(Cl)c2)n1-c1ccc(F)cc1 [5-{2-chloro-4-[({5-[1-(3,4-dichlorophenyl)-1-methylethyl]-1-(4-fluorophenyl)-1H-imidazol-2-yl}thio)methyl]phenyl}-1H-tetrazole]	100 to 1000
CC(C)(c1ccc(Cl)c(Cl)c1)c1cnc(SCc2ccc(Cl)c(-c3nnn[nH]3)c2)n1-c1cccc(F)c1 [5-{2-chloro-5-[({5-[1-(3,4-dichlorophenyl)-1-methylethyl]-1-(3-fluorophenyl)-1H-imidazol-2-yl}thio)methyl]phenyl}-1H-tetrazole]	100 to 1000
CC(C)(c1ccc(Cl)c(Cl)c1)c1cnc(COc2ccc(-c3nn[nH]n3)cc2Cl)n1-c1ccc(F)cc1 [5-{3-chloro-4-[({5-[1-(3,4-dichlorophenyl)-1-methylethyl]-1-(4-fluorophenyl)-1H-imidazol-2-yl}methyl)oxy]phenyl}-2H-tetrazole]	1000 to 10000
CC(C)(c1ccc(Cl)c(Cl)c1)c1cnc(SCc2ccc(-c3nnn[nH]3)c(F)c2)n1-c1ccc(F)cc1 [5-{4-[({5-[1-(3,4-dichlorophenyl)-1-methylethyl]-1-(4-fluorophenyl)-1H-imidazol-2-yl}thio)methyl]-2-fluorophenyl}-1H-tetrazole]	100 to 1000
CC(C)(c1ccc(Cl)c(Cl)c1)c1cnc(SCc2ccc(F)c(-c3nnn[nH]3)c2)n1-c1ccc(F)cc1 [5-{5-[({5-[1-(3,4-dichlorophenyl)-1-methylethyl]-1-(4-fluorophenyl)-1H-imidazol-2-yl}thio)methyl]-2-fluorophenyl}-1H-tetrazole]	100 to 1000
CC(C)(c1ccc(Cl)c(Cl)c1)c1cnc(COc2ccc(C#N)cn2)n1-c1ccc(F)cc1 [6-[({5-[1-(3,4-dichlorophenyl)-1-methylethyl]-1-(4-fluorophenyl)-1H-imidazol-2-yl}methyl)oxy]pyridine-3-carbonitrile]	100 to 1000
CC(C)(c1ccc(Cl)c(Cl)c1)c1cnc(COc2ccc(C(N)=O)cn2)n1-c1ccc(F)cc1 [6-[({5-[1-(3,4-dichlorophenyl)-1-methylethyl]-1-(4-fluorophenyl)-1H-imidazol-2-yl}methyl)oxy]pyridine-3-carboxamide]	100 to 1000
CC(C)(c1ccc(Cl)c(Cl)c1)c1cnc(COc2ccc(C(=O)O)cn2)n1-c1ccc(F)cc1 [6-[({5-[1-(3,4-dichlorophenyl)-1-methylethyl]-1-(4-fluorophenyl)-1H-imidazol-2-yl}methyl)oxy]pyridine-3-carboxylic acid]	100 to 1000
CC(C)(c1ccc(Cl)c(Cl)c1)c1cnc(COc2ccc3ncccc3c2)n1-c1ccc(F)cc1 [6-[({5-[1-(3,4-dichlorophenyl)-1-methylethyl]-1-(4-fluorophenyl)-1H-imidazol-2-yl}methyl)oxy]quinoline]	100 to 1000
CC(C)(c1ccc(Cl)c(Cl)c1)c1cnc(SCc2ccc(F)cc2OCC(=O)O)n1-c1ccc(F)cc1 [({2-[({5-[1-(3,4-dichlorophenyl)-1-methylethyl]-1-(4-fluorophenyl)-1H-imidazol-2-yl}thio)methyl]-5-fluorophenyl}oxy)acetic acid]	100 to 1000
CC(C)(c1ccc(Cl)c(Cl)c1)c1cnc(S(=O)(=O)Nc2ccc(F)cc2Cl)n1-c1ccc(F)cc1 [N-(2-chloro-4-fluorophenyl)-5-[1-(3,4-dichlorophenyl)-1-methylethyl]-1-(4-fluorophenyl)-1H-imidazole-2-sulfonamide]	1000 to 10000
CC(C)(c1ccc(NS(C)(=O)=O)cc1)c1cnc(SCc2c(F)cccc2Cl)n1-c1ccc(F)cc1 [N-(4-{1-[2-{[(2-chloro-6-fluorophenyl)methyl]thio}-1-(4-fluorophenyl)-1H-imidazol-5-yl]-1-methylethyl}phenyl)methanesulfonamide]	100 to 1000
COc1cc(C(C)(C)c2cnc(SCc3ccc(S(=O)(=O)NC(=O)NCCC(=O)O)cc3Cl)n2-c2ccc(F)cc2)ccc1Cl [N-[({[3-chloro-4-({[5-{1-[4-chloro-3-(methyloxy)phenyl]-1-methylethyl}-1-(4-fluorophenyl)-1H-imidazol-2-yl]thio}methyl)phenyl]sulfonyl}amino)carbonyl]-beta-alanine]	100 to 1000
COc1ccc(C(C)(C)c2cnc(CNc3ccc(F)cc3Cl)n2-c2ccc(F)cc2)cc1OC [N-{[5-{1-[3,4-bis(methyloxy)phenyl]-1-methylethyl}-1-(4-fluorophenyl)-1H-imidazol-2-yl]methyl}-2-chloro-4-fluoroaniline]	< 100
COc1ccc(C(C)(C)c2cnc(CNc3ccc(Cl)c(Cl)c3)n2-c2ccc(F)cc2)cc1OC [N-{[5-{1-[3,4-bis(methyloxy)phenyl]-1-methylethyl}-1-(4-fluorophenyl)-1H-imidazol-2-yl]methyl}-3,4-dichloroaniline]	< 100
COc1ccc(C(C)(C)c2cnc(CNc3ccc(F)c(Cl)c3)n2-c2ccc(F)cc2)cc1OC [N-{[5-{1-[3,4-bis(methyloxy)phenyl]-1-methylethyl}-1-(4-fluorophenyl)-1H-imidazol-2-yl]methyl}-3-chloro-4-fluoroaniline]	100 to 1000
COc1cc(C(C)(C)c2cnc(SCC3CCN(CC(=O)O)CC3)n2-c2ccc(F)cc2)ccc1Cl [[4-({[5-{1-[4-chloro-3-(methyloxy)phenyl]-1-methylethyl}-1-(4-fluorophenyl)-1H-imidazol-2-yl]thio}methyl)piperidin-1-yl]acetic acid]	1000 to 10000
